Measurements published in patent US20060142397A1, “Use of a pparalpha agonist and metormin for decreasing the serum triglycerides” (priority 2002, published 2006).
Read-outs that look alike come from different tables or passages of the source. Marks after values point to notes of the source that are not given here.

Key:
ob/ob mice = conditions: for Serum triglycerides T0 + 10: after 10 days of treatment once a day, 100 mg/kg of each drug; for Serum triglycerides T0 + 10 / Serum triglycerides T0: mean ± sem, n=10; for Serum triglycerides T0: beginning of study (T0, baseline), groups later treated once a day with 100 mg/kg of each drug
Protocol: Studies were designed to evaluate the effects of fenofibrate, a PPARα agonist, and metformin as a combination therapy, on triglycerides level in ob/ob mice.
Male homozygous C57BL/Ks/Ola/Hsd/lep ob/ob mice were stabilized for 2 weeks in the animal facilities in a temperature-, humidity- and light-controlled room (21-23° C., 12-12 h light-dark cycle). […] After acclimatization, they were randomized into groups of 10 based on body weight, as follows:
Met 100=mice treated once a day with metformin, 100 mg/kg
Feno 100=mice treated once a day with fenofibrate, 100 mg/kg
Feno100-Met100=mice treated once a day with fenofibrate, 100 mg/kg and metformin, 100 mg/kg.
Serum triglycerides (expressed in g/l) were measured at the beginning and the end of the study for each group.
Statistics: All data were subjected to covariance analysis followed by Tukey test.

db/db mice = conditions: for Triglycerides % var. T0/T15: 14 days gavage; for Triglycerides T0: T0 (baseline); for Triglycerides T0 / Triglycerides T15: mean ± SEM; for Triglycerides T15: T15 after 14 days gavage
Protocol: Studies were designed to evaluate the effects of fenofibrate, a PPARα agonist, and metformin as a combination therapy, on triglycerides level in db/db mice.
Male 11/12 weeks old […] J Rj-db (db/db) mice (Janvier, France) were housed in a temperature (19.5-24.5° C.), relative humidity (40-70%) and 12-12 h light-dark cycle (light 7:00 a.m. to 7:00 p.m.)-controlled room, with ad libitum access to filtered (0.22 μm) tap-water and irradiated pelleted laboratory chow (ref. A04, U.A.R., France) throughout the study. They were housed 5 per cage and a 21-day acclimatization period was observed.
The mice were treated during 14 consecutive days (T1 to T14), with morning and afternoon gavages with the various treatments as described below.
At T15, the mice were weighed and blood samples collected without anticoagulant by retro-orbital puncture under CO2/O2 anesthesia.
Triglycerides were measured at T0 and T15 using the multi-parametric analyzer.
Veh/Veh=Vehicle in morning/Vehicle in the afternoon
A300/Veh=metformin, 300 mg/kg in the morning/Vehicle in the afternoon
B100/B100=fenofibrate, 100 mg/kg in the morning/fenofibrate, 100 […]
A300B100/B100=metformin, 300 mg/kg in the morning, and fenofibrate, 100 mg/kg in the morning/fenofibrate, 100 mg/kg in the afternoon
A100/Veh=metformin, 100 mg/kg in the morning/Vehicle in the afternoon
B30/B30=fenofibrate, 30 mg/kg in the morning/fenofibrate, 30 mg/kg in the afternoon
A100B30/B30=metformin, 100 mg/kg in the morning, and fenofibrate, 30 mg/kg […]/fenofibrate, 30 mg/kg in the afternoon

Zucker rats = conditions: obese Zucker rats, 30 days, fenofibrate 30 mg/kg p.o. once daily and/or metformin 150 mg/kg p.o. twice daily; for Body weight gain: mean ± SEM, n=8
Protocol: Studies were designed to evaluate the effects of fenofibrate, a PPARα agonist, and metformin as a combination therapy, on body weight in Zucker rats.
Male homozygous Zucker rats of 9 to 11 weeks of age and their lean controls were randomised into groups of 8, based on body weight and fasting plasma insulin levels.
The experimental groups were: • Lean rats, untreated; • Obese rats, treated with the vehicle p.o., twice daily • Obese rats, treated with Fenofibrate, 30 mg/kg, p.o., once daily • Obese rats, treated with Metformin, 150 mg/kg, p.o., twice daily • Obese rats, treated with Fenofibrate, 30 mg/kg, p.o., once daily and metformin, 150 mg/kg, p.o., twice daily.
Body weight was recorded every day during 30 days.

[1] = metformin 100 mg/kg morning and/or fenofibrate 30 mg/kg twice daily
[2] = metformin 300 mg/kg morning and/or fenofibrate 100 mg/kg morning and afternoon
[3] = high-dose groups: metformin 300 mg/kg morning and/or fenofibrate 100 mg/kg morning and afternoon
[4] = low-dose groups: metformin 100 mg/kg morning and/or fenofibrate 30 mg/kg twice daily

Compound | Serum triglycerides T0 + 10 (ob/ob mice) | Serum triglycerides T0 (ob/ob mice) | Triglycerides % var. T0/T15 (db/db mice; [1]) | Triglycerides % var. T0/T15 (db/db mice; [2]) | Triglycerides T0 (db/db mice; [3]) | Triglycerides T0 (db/db mice; [4]) | Triglycerides T15 (db/db mice; [1]) | Triglycerides T15 (db/db mice; [2]) | Body weight gain (% of change vs vehicle treated group) (Zucker rats) | Body weight gain (Zucker rats) | Effect on triglycerides level (in words) (ob/ob mice; 10 days, 100 mg/kg once a day) | Effect on triglycerides level (in words) (db/db mice; 14 days treatment)
CC(C)OC(=O)C(C)(C)Oc1ccc(C(=O)c2ccc(Cl)cc2)cc1 [Fenofibrate, fenofibrate] | 0.69 ± 0.03 g/L | 0.72 ± 0.06 g/L | −42.3* % | −53.5* % | 1.89 ± 0.13 g/L | 1.72 ± 0.12 g/L | 0.97 ± 0.08 g/L | 0.85 ± 0.08 g/L | −26% | 52.0 ± 5.8 g | – | –
CN(C)C(=N)N=C(N)N [Metformin, metformin] | 0.74 ± 0.04 g/L | 0.68 ± 0.03 g/L | 7.3° % | −3.3° % | 1.81 ± 0.14 g/L | 1.68 ± 0.12 g/L | 1.79 ± 0.16° g/l | 1.67 ± 0.06 g/L | −5% | 67.2 ± 4.0 g | no effects | no reduction in triglycerides level
